Results as given in patent US20170000903A1, “CRYSTALLINE CELLULOSE GEL-BASED CRYPTANDS, SURFACE ACTIVE AGENTS, EMULSIONS AND VESICLES” (UNIVERSITY OF SASKATCHEWAN, priority 2013, published 2017).

How the values were obtained:
[1] = cited from earlier work
[2] = Solubility of Clotrimazole in water / methanol, dark field microscopy; assay type: physicochemical
Description: The methanol solution was then mixed with 1% cellulose gel (treatment) and water (positive control). All samples were examined under a dark field microscope.

[3] = Dye release from crystalline cellulose gel to liquid phase (visual and spectrophotometric); assay type: physicochemical; details: for release pattern from crystalline cellulose gel (very slow, slow, fast, very fast): categorised from absorbance in the liquid phase, 0-72 hours; for dye release to liquid phase, absorbance: over 72 hours, 10 ml RO water over gel, at absorbance maximum of dye, 4 AU = saturation; for colour of solution above the precipitate after 72 hours (dye diffusion out of cellulose crystals): 72 hours at room temperature (approximately 21-22° C.), visual
Description: Approximately 2 ml aliquots of 3% w/v crystalline cellulose gel samples containing small solid cellulose crystals were thoroughly mixed with respective model dye solutions and incubated for 30 minutes at room temperature. The stained samples where then centrifuged. The supernatant was decanted, and the pellets containing crystalline cellulose were washed several times with reverse osmosis water and centrifuged. The cycles of washing and centrifugation were repeated until water in which cellulose gel was suspended was clear. After the final wash, small samples of each gel were taken for microscopic examination, and the gels in each tube were covered with a 10 ml column of RO water. These preparations served as media for monitoring the rate of dye release from crystalline cellulose gel to the surrounding liquid phase. Following a few minutes of sample equilibration, 500 μl of the liquid phase was withdrawn from each preparation for spectroscopic measurements to establish absorbance values at time 0. Subsequently, 500 μl samples of the liquid phase were collected at 2, 6, 12, 24, 48, and 72 hour intervals for monitoring of dye release to the liquid phase from the cellulose matrix over time.

[4] = 1 mg per ml, dark field microscope

solubility in methanol [2, 4]	solubility in water [2, 4]	behaviour of methanol solution mixed with water ([2]; methanol solution 1 mg per ml mixed with water)	SMILES	solubility in organic solvents (known property) [1]	solubility in water (known property) [1]	release pattern from crystalline cellulose gel (very slow, slow, fast, very fast) [3]	dye release to liquid phase, absorbance [3]	colour of solution above the precipitate after 72 hours (dye diffusion out of cellulose crystals) [3]
totally dissolved in methanol	not soluble in water	fine crystals precipitated	Clc1ccccc1C(c1ccccc1)(c1ccccc1)n1ccnc1 [Clotrimazole]	soluble in acetone, chloroform, methanol and ethanol	practically insoluble in water	–	–	–
–	–	–	CCN(CC)c1ccc(C(=C2C=CC(=[N+](CC)CC)C=C2)c2ccccc2)cc1 [brilliant green, Brilliant Green]	–	–	very fast	4 AU	–
–	–	–	Nc1c(/N=N/c2ccc(-c3ccc(/N=N/c4cc(S(=O)(=O)[O-])c5ccccc5c4N)cc3)cc2)cc(S(=O)(=O)[O-])c2ccccc12.[Na+].[Na+] [congo red, Congo Red]	–	–	slow	0.128 AU	diffused out of the precipitated cellulose crystals
–	–	–	Oc1cc2c(cc1O)[C@@H]1c3ccc(O)c(O)c3OC[C@]1(O)C2 [haematoxylin, Hematoxilin]	–	–	slow	0.09 AU	diffused out of the precipitated cellulose crystals
–	–	–	CCN(Cc1cccc(S(=O)(=O)[O-])c1)c1ccc(C(=C2C=CC(=[N+](CC)Cc3cccc(S(=O)(=O)O)c3)C=C2)c2ccc(S(=O)(=O)O)cc2)cc1 [light green, Light Green]	–	–	very fast	4 AU	–
–	–	–	CN(C)c1ccc(C(=C2C=CC(=[N+](C)C)C=C2)c2ccccc2)cc1.[Cl-] [malachite green, Malachite Green]	–	–	slow	0.32 AU	–
–	–	–	CN(C)c1ccc2nc3ccc(=[N+](C)C)cc-3sc2c1 [methylene blue, Methylene Blue]	–	–	very slow	0.025 AU	slight bluish hue
–	–	–	Cc1cc2nc3cc(C)c(N)cc3[n+](-c3ccccc3)c2cc1N [safranine, Safranine]	–	–	slow	0.08 AU	slight pinkish hue
